Results as given in US10301630B2, “Methods and compositions for unsilencing imprinted genes” (The University of North Carolina at Chapel Hill, priority 2010, dated 2019).
Where two headings read alike, the source gives them in different places.

Test system: paternal Ube3a-YFP allele
Assay: High-content imaging of paternal Ube3a-YFP unsilencing in primary cortical neurons
Format: cell-based, mouse
Settings: 72 h; for EC50: unsilencing paternal Ube3a-YFP; for Potency EC20 / EC20 / Potency EC20 (nM): 1 nM to 30 μM; for EC20: read-out: Potency EC20; for unsilencing of paternal Ube3a-YFP in dose-response experiments: cultured Ube3a m+/pYFP neurons
Method: In all screening assays, primary cortical neurons from Ube3a-YFP mice are isolated from embryonic day 15.5 animals, and the genotype of animals is determined to identify mice that encode the Ube3a-YFP transgene on the paternal allele. Freshly isolated cortical neurons are seeded into 384 well plates and cultured for 7 days. At day in vitro seven, screening is performed using multiple chemical libraries and compound concentration of 10 μM in 0.2% DMSO vehicle. After 72 h of drug exposure (run in quadruplicate wells), neurons are fixed with 4% para formaldehyde and processed for immunofluorescence using an anti-GFP-Alexa 488 conjugated antibody to enhance the signal of Ube3a-YFP in neurons. For image analyses, individual wells of immunofluorescence-processed plates are imaged fro DAPI and GFP fluorescence using the BD-Pathway 855 high-content imaging microscope. Ube3a-YFP fluorescence intensities in individual neurons are determined in drug-treated wells and normalized to 0.2% DMSO-treated (i.e., vehicle control) wells using custom written macros and algorithms using NIH Image J and Arrayscan Cell Profiler software programs. These image analyses enable masking of nuclei in individual neurons and determination of Ube3a-YFP fluorescence intensity in the nuclei of individual neurons.
For these studies, DIV 7 primary neurons encoding paternal Ube3a-YFP are dose treated with hit compounds across seven orders of magnitude in full and half log molar concentrations (3 pM to 30 μM). Ube3a-YFP fluorescence intensities in living neurons are determined again by high-content imaging microscopy after 72 h treatments. The dose response results are analyzed by least squares sigmoidal dose-response curve fitting models using Graphpad Prism 5.0 (Graphpad Software, Inc.). The calculated EC50 values (potencies) and Y value top plateau (estimated efficacies or Emax) enable comparative analyses of the relative potency and efficacy of the identified compounds.
Primary cortical neurons were isolated from E13.5-16.5 Ube3a-YFP mice. Screening was performed in quadruplicate at DIV7 using multiple chemical libraries and a compound concentration of 10 μM in 0.2% DMSO vehicle. After 72 h of drug exposure, neurons were fixed with 4% paraformaldehyde in PBS for 35 min, permeabilized with 0.3% Triton X-100 in PBS on ice for 30 min, and blocked by 5% goat serum with 0.1% Triton X-100 in PBS at room temperature for 1 hr. Cells were incubated with a rabbit polyclonal antibody to GFP (1:1000, Novus Biologicals, NB600-308) at room temperature for 1 hr and then incubated with Alexa Fluor 488 goat antibody to rabbit IgG (1:200, Invitrogen, A11008) and DAPI (1:10,000, Invitrogen, D-1306) at room temperature for 30 min. Individual wells of immunofluorescence-processed plates were imaged for DAPI or Alexa 488 fluorescence using the BD Pathway 855 high-content imaging microscope with a 488 excitation/515 long pass filter. Antibody-enhanced UBE3A-YFP fluorescence intensities were determined from individual neurons in drug-treated wells and normalized to neurons in wells treated with 0.2% DMSO (vehicle control). Analyses were performed with custom macros and algorithms using NIH Image J and Arrayscan Cell Profiler software programs (Thermo Scientific/Cellomics). These image analyses enabled masking of nuclei in individual neurons and determination of UBE3A-YFP fluorescence intensities in the nuclei of individual neurons (FIG. 16).
DIV7 primary neurons from Ube3a^m+/pYFP mice were dose-treated for 72 h with topoisomerase I and II inhibitors in ten point dose-responses in full and half log molar concentrations (1 nM to 30 μM). Neurons were fixed, processed for immunofluorescence, and UBE3A-YFP fluorescence intensities were again determined by high-content imaging microscopy.

[1] = Table 1, Ube3a-YFP fluorescence intensity above control cells (0.2% DMSO treated), cortical neurons
[2] = Table 1, cortical neurons, read-out: EC50
[3] = Table 3, unsilencing the paternal allele of Ube3a-YFP in cultured neurons
[4] = Mus musculus, Cortical neurone, Table 1, Ube3a-YFP fluorescence intensity above control cells (0.2% DMSO treated), cortical neurons, read-out: Efficacy Emax (fold over control)
[5] = Mus musculus, Cortical neurone, Table 1, cortical neurons, read-out: EC50
[6] = Mus musculus, Neuron, Table 3, unsilencing the paternal allele of Ube3a-YFP in cultured neurons
[7] = Mus musculus, Neuron, Table 3, unsilencing the paternal allele of Ube3a-YFP in cultured neurons, read-out: Efficacy Emax (fold over vehicle)

| EC50 [5] [µM] | Compound | Efficacy Emax (fold over control) [1] [fold over control] | EC50 [2] [µM] | Efficacy Emax (fold over vehicle) [3] | Potency EC20 [3] [µM] | maximal fold induction [4] | EC20 [6] [µM] | maximal fold induction [7] | further results |
| --- | --- | --- | --- | --- | --- | --- | --- | --- | --- |
| – | CCc1c2c(nc3ccc(O)cc13)-c1cc3c(c(=O)n1C2)COC(=O)[C@]3(O)CC [7-Ethyl-10-Hydroxy-CPT] | 2.00 ± 0.09 | 0.033 ± 0.0013 | 1.99 ± 0.06 fold over vehicle | 0.011 ± 0.0032 | – | – | – | – |
| – | CCc1c2c(nc3ccccc13)-c1cc3c(c(=O)n1C2)COC(=O)[C@]3(O)CC [7-Ethyl-CPT, 7-Ethyl-Camptothecin] | 1.68 ± 0.05 | 0.049 ± 0.0013 | 1.70 ± 0.04 fold over vehicle | 0.0072 ± 0.0023 | – | – | – | – |
| – | CC[C@@]1(O)C(=O)OCc2c1cc1n(c2=O)Cc2cc3cc(O)ccc3nc2-1 [10-Hydroxy-CPT] | 1.68 ± 0.06 | 0.04 ± 0.0014 | 1.82 ± 0.08 fold over vehicle | 0.014 ± 0.0057 | – | – | – | – |
| 0.028 ± 0.01 | COc1cc(NS(C)(=O)=O)ccc1Nc1c2ccccc2nc2ccccc12 [Amsacrine] | – | – | – | – | 1.65 ± 0.05 | 0.027 ± 0.0052 | 1.74 ± 0.06 | – |
| 0.018 ± 0.0011 | CC[C@@]1(O)C(=O)OCc2c1cc1n(c2=O)Cc2c-1nc1ccccc1c2CCNC(C)C [Belotecan (CKD602), Belotecan] | – | – | – | – | 1.85 ± 0.04 | 0.019 ± 0.0044 | 1.88 ± 0.05 | – |
| – | C[C@@H](CN1CC(=O)NC(=O)C1)N1CC(=O)NC(=O)C1 [Dexrazoxane (ICRF-187), Dexrazoxane] | – | – | – | – | – | 20.5 ± 1.45 | 1.82 ± 0.05 | unsilencing of paternal Ube3a-YFP in dose-response experiments: unsilenced the paternal Ube3a-YFP allele |
| – | COc1cc([C@@H]2c3cc4c(cc3[C@@H](O[C@@H]3O[C@@H]5CO[C@@H](C)O[C@H]5[C@H](O)[C@H]3O)[C@H]3COC(=O)[C@H]23)OCO4)cc(OC)c1O [Etoposide] | – | – | – | – | – | 1.6 ± 0.98 | 1.68 ± 0.04 | unsilencing of paternal Ube3a-YFP in dose-response experiments: unsilenced the paternal Ube3a-YFP allele |
| – | CC[C@@]1(O)C(=O)NCc2c1cc1n(c2=O)Cc2cc3ccccc3nc2-1 [Lactam E ring-CPT (inactive), Lactam E ring-CPT] | – | – | inactive | – | – | – | – | Potency EC20 (nM) [3]: inactive; unsilencing of paternal Ube3a-YFP in dose-response experiments: failed to unsilence the paternal Ube3a-YFP allele |
| – | COc1cc2c3c(n(CCCNCCO)c(=O)c2cc1OC)-c1cc2c(cc1C3=O)OCO2 [NSC706744] | 1.76 ± 0.03 | 0.0062 ± 0.002 | 1.84 ± 0.07 fold over vehicle | 0.011 ± 0.0032 | – | – | – | – |
| – | COc1cc2c3c(n(CCCN4CCOCC4)c(=O)c2cc1OC)-c1cc2c(cc1C3=O)OCO2 [NSC724998] | 1.65 ± 0.03 | 0.012 ± 0.004 | 1.69 ± 0.03 fold over vehicle | 0.014 ± 0.0022 | – | – | – | – |
| – | COc1cc2c3c(n(CCCn4ccnc4)c(=O)c2cc1OC)-c1cc2c(cc1C3=O)OCO2 [NSC725776] | 1.82 ± 0.05 | 0.0092 ± 0.002 | 1.76 ± 0.03 fold over vehicle | 0.01 ± 0.0016 | – | – | – | – |
| 0.043 ± 0.0091 | CC[C@@]1(O)C(=O)OCc2c1cc1n(c2=O)Cc2cc3c([N+](=O)[O-])cccc3nc2-1 [Rubitecan (9-Nitro-CPT), Rubitecan] | – | – | – | – | 2.07 ± 0.08 | 0.062 ± 0.018 | 2.09 ± 0.09 | – |
| 2.64 ± 0.095 | CC[C@@]1(O)C(=O)OCc2c1cc1n(c2=O)Cc2c-1nc1ccc(O)cc1c2[Si](C)(C)C(C)(C)C [Silatecan (DB67), Silatecan] | – | – | – | – | 1.71 ± 0.06 | 2.24 ± 0.171 | 1.65 ± 0.05 | – |
| – | ICRF-193 | – | – | – | – | – | – | – | EC50 (Table 1, cortical neurons): 0.131 ± 0.013 µM; Potency EC20 (nM) [3]: 205 ± 70^ nM; unsilencing of paternal Ube3a-YFP in dose-response experiments: unsilenced the paternal Ube3a-YFP allele |

| Compound | EC50 [5] [µM] | Efficacy Emax (fold over control) [1] [fold over control] | EC50 [2] [µM] | Efficacy Emax (fold over vehicle) [3] | Potency EC20 [3] [µM] | maximal fold induction [4] | EC20 [6] [µM] | maximal fold induction [7] | further results |
| --- | --- | --- | --- | --- | --- | --- | --- | --- | --- |
| CC[C@@]1(O)C(=O)OCc2c1cc1n(c2=O)Cc2cc3ccccc3nc2-1 [Camptothecin (CPT), Camptothecin] | 0.032 ± 0.0013 | – | – | – | – | 1.66 ± 0.06 | 0.021 ± 0.0038 | 2.11 ± 0.05 | – |
